Experiments:
[1] = test system: chicken pre-B cell line DT40; experiment: Thymidine incorporation toxicity assay in isogenic DT40 cells with or without KU70, RAD52, RAD54; type: cell-based; conditions: for effect of loss of homologous recombination (RAD52 or RAD54) on toxicity: DT40 with or without RAD52 or RAD54
Protocol: (§1) Cell lines were grown at 37° C. in an atmosphere of 5% CO2. The chicken pre-B cell line DT40 and its derivatives (Bezzubova, et al., Cell 89: 185–93 (1997), Takata, et al., EMBO Journal 17: 5497–508 (1998), Yamaguchi-Iwai, et al., Molecular & Cellular Biology 18: 6430–5 (1998)) were grown in RPMI containing 10% fetal calf serum and 1% chicken serum. The remaining cell lines were grown in DMEM with 10% fetal calf serum.
(§2) Toxicity assays in mammalian cell lines were performed using tritiated thymidine incorporation as a measure of the number of viable cells. […] Drug toxicity was measured as follows:
(§3) Cells were plated at a density of 500 cells per well in opaque 96 well plates (Packard) in a volume of 135 μL per well of the appropriate media. The plates were incubated overnight to allow cell adherence. Seven two-fold dilutions of the test compounds were added in a volume of 15 μL per well in triplicate, and 15 μL of media containing an appropriate concentration of DMSO was added to control wells in triplicate. Plates were incubated at 37° C. for 96 hours. The media was then replaced with 100 μL per well of the appropriate media containing 2 μCi/mL of (methyl-^3H) thymidine (Amersham Pharmacia Biotech), then plates were incubated for a further 24 hours at 37° C. Cells were washed three times with PBS, then 100 μL per well of scintillant was added (Microscint 20, Packard), and sealed plates were counted in a microplate reader (Packard Topcount). For suspension chicken cells, (methyl-^3H) thymidine was added directly to the drug-containing media at a concentration of 20 μCi/mL (comprising one tenth of the media volume) and incubated overnight. The suspension cells were transferred to a UniFilter GF/C plate (Packard) and washed with PBS in a plate washer (Packard). After drying, 25 μL per well of scintillant (Microscint 20, Packard) was added, and sealed plates were counted. Toxicity is expressed as a percentage of the control counts. For experiments involving shorter exposures to compounds, cells were grown in the presence of compound for the appropriate time, then the media was replaced with fresh drug-free media, and incubation continued for the remainder of 96 hours, followed by the normal tritiated thymidine uptake and washing protocol.
In the case of Topo II poisons, the drug/enzyme complex directly produces a DSB, which could occur in all phases of the cell cycle and can apparently be repaired by either DSB repair pathway. Topo I poisons, however, create a single strand break that is converted to a DSB by passage of a replication fork during ongoing DNA synthesis (D'Arpa, et al., Cancer Research 50: 6919–24 (1990), Hsiang, et al., Cancer Research 49: 5077–82 (1989), Holm, et al., Cancer Research 49: 6365–8 (1989)). It has been proposed that DSB's created in this context can only be repaired by homologous recombination, additionally requiring proteins involved in sister chromatid cohesion (Castano, et al., Genes & Development 10: 2564–76 (1996), Castano, et al., Nucleic Acids Research 24: 2404–10 (1996), Walowsky, et al., Journal of Biological Chemistry 274: 7302–8 (1999)).

[2] = test system: ACHN, SW620, A549, MDA-N; experiment: Thymidine incorporation toxicity assay in four cancer derived cell lines; type: cell-based, human; conditions: for correlation between MDR1 activity and toxicity/sensitivity: A549, SW620, ACHN (MDR1 10, 31, 120); for cell line against which most effective: four tumor derived cell lines
Protocol: as §1, §2, §3
A common mechanism of tumor resistance to chemotherapeutic agents is overexpression of the drug efflux protein MDR1 (Kane, et al., Advances in Drug Research 28: 182–252 (1996), Nooter, et al., Leukemia Research 18: 233–43 (1994)). MDR1 is overexpressed in many tumor derived cell lines (for instance see http://dtp.nci.nih.gov/), and its overexpression inversely correlates with sensitivity to certain compounds (Kane, et al., Advances in Drug Research 28: 182–252 (1996)).

[3] = biological target: T1, purified Topo I (Homo sapiens, UniProt P11387); experiment: In vitro assay for DNA strand-break formation in the presence of purified Topo I; type: biochemical
T1 sequence (P11387 1-765): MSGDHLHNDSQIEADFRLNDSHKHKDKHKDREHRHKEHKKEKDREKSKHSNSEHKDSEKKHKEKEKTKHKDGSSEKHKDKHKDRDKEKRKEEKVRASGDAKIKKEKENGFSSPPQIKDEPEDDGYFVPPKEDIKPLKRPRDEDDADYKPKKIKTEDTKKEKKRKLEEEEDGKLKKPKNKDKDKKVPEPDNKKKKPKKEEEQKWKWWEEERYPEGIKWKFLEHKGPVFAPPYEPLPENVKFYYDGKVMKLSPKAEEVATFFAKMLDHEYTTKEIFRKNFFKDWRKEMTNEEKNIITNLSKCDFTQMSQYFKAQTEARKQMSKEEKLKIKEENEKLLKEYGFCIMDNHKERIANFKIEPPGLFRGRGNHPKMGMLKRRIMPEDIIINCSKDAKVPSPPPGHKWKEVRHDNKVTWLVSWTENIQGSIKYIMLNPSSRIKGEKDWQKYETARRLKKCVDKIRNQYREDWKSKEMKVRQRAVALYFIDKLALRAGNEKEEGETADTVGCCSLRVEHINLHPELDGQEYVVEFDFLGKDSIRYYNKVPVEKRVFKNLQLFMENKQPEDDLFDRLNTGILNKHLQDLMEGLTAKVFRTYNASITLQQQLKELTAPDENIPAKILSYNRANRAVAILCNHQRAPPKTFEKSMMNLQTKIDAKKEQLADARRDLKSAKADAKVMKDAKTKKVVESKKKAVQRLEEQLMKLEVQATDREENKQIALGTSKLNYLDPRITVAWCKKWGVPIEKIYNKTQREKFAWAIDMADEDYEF

[4] = test system: Rat1a fibroblasts; experiment: Effect of exposure time on toxicity in Rat1a fibroblasts; type: cell-based, rat; conditions: for toxicity with a two hour exposure: additional experiments; for toxicity of four hour versus six hour exposure: total incubation 96 hours
Protocol: as §3

[5] = test system: DSB repair defective rad50 and rad52 strains of Saccharomyces cerevisiae; type: cell-based; conditions: relative growth (OD660) vs solvent control
Description: The strains are derived from the A364a genetic background, with the exception of BY4705, which is derived from the S288C background. Gene disruptions were generated by PCR fragment directed replacement (Baudin, et al., Nucleic Acids Research 21: 3329–30 (1993), Guldener, et al., Nucleic Acids Research 24: 2519–24 (1996)). Yeast overexpressing topoisomerase II was constructed by a PCR fragment directed promoter replacement of the topoisomerase II promoter with the yeast GPD promoter flanked upstream by the URA3 marker. All strains (except BY4705) bear the pleitropic drug sensitizing mutations erg6, pdr1, and pdr3 (Balzi, et al., Journal of Bioenergetics & Biomembranes 27: 71–6 (1995), Delaveau, et al, Molecular & General Genetics 244: 501–11 (1994), Gaber, et al., Molecular & Cellular Biology 9: 3447–56 (1989), Saunders, et al., Canadian Journal of Genetics & Cytology, 24: 493–503 (1982). Subik, et al, Current Genetics 10: 665–70 (1986)). The haploid yeast strain BY4705 (Brachmann, et al., Yeast 14: 115–32 (1998)) was used in the experiments described in FIG. 5. Plasmids expressing yeast or human topoisomerase I genes under the GAL promoter (Knab, et al., Journal of Biological Chemistry 268: 22322–30 (1993). Knab, et al., Journal of Biological Chemistry 270: 6141–8 (1995)) were transformed into BY4705 using standard procedures.
Yeast toxicity assays were performed essentially as follows: Exponentially growing cultures of the appropriate strains were diluted in synthetic complete media to a concentration of 7.4×10^4 cells/mL, and aliquots (135 μL) were transferred to each well of clear flat-bottomed 96 well plates. Compounds were added in duplicate or triplicate as 15 μL of the appropriate dilution in 5% DMSO. A 15 μL portion of 5% DMSO was added to control wells. […] Cell growth (OD660) in treated wells was plotted as a percentage of the growth in at least four averaged solvent control wells for the same strain. Camptothecin sodium salt (camptothecin Na) was the agent used in all yeast assays as standard.

[6] = test system: Rat1a fibroblasts; experiment: Effect of co-treatment with hydroxyurea (HU) on toxicity in Rat1a fibroblasts; type: cell-based, rat; conditions: six-hour exposure; 0, 0.25, 0.5 or 1 mM HU
Protocol: FIG. 6 illustrates the effect of exposure time and hydroxyurea on the toxicity of compound Ia and compound IIa. […] Rat1a fibroblasts were exposed to compound during growth for either four or six hours, the media was changed, then cells were grown for an appropriate period such that total incubation time was 96 hours, and processed as described in the Example below. […] The bar graph insets for each graph show growth inhibition by HU alone.
as §3
A six-hour exposure was used to test whether the toxicity of the same set of compounds is dependent on ongoing DNA synthesis. […] Thus, in contrast to camptothecin and topotecan, compounds Ia and IIa show no marked time dependency for toxicity (FIG. 6A) and are not inhibited by HU (FIG. 6B), indicating critical mechanistic differences between these compounds and camptothecin.

Compound	effect of loss of homologous recombination (RAD52 or RAD54) on toxicity [1]	correlation between MDR1 activity and toxicity/sensitivity [2]	cell line against which most effective [2]	toxicity with a two hour exposure [4]	toxicity of four hour versus six hour exposure [4]	other results
CC[C@@]1(O)C(=O)OCc2c1cc1n(c2=O)Cc2cc3ccccc3nc2-1 [camptothecin, Camptothecin, reference compound]	minor effect	No correlation	most effective against the colon carcinoma derived cell line SW620	no toxicity	–	effect of loss of KU70 on toxicity ([1]; DT40 with or without KU70): unaffected by KU70 expression; camptothecin concentration required in the in vitro assay relative to cell-based assays [3]: 100 fold; strand-break induction [3]: does induce strand-break formation; effectiveness of 96 hour exposure relative to four hour exposure [4]: ≤ 100 fold
COc1cc([C@@H]2c3cc4c(cc3[C@@H](O[C@@H]3O[C@@H]5CO[C@@H](C)O[C@H]5[C@H](O)[C@H]3O)[C@H]3COC(=O)[C@H]23)OCO4)cc(OC)c1O [etoposide, reference compound]	no effect	–	–	nearly full toxicity	little difference in toxicity	–
O=C1c2c(O)ccc(O)c2C(=O)c2c(NCCNCCO)ccc(NCCNCCO)c21 [mitoxantrone]	–	–	–	–	–	profile of selective toxicity: toxic to rad50 and rad52 strains, not toxic in rad14 or rad18 strains [5]: Agents with this profile include
CC(=O)O[C@H]1C(=O)[C@@]2(C)[C@H]([C@H](OC(=O)c3ccccc3)[C@]3(O)C[C@H](OC(=O)[C@H](O)[C@@H](NC(=O)c4ccccc4)c4ccccc4)C(C)=C1C3(C)C)[C@]1(OC(C)=O)CO[C@@H]1C[C@@H]2O [taxol, reference compound]	–	clear inverse correlation	–	–	–	–
CC[C@@]1(O)C(=O)OCc2c1cc1n(c2=O)Cc2cc3c(CN(C)C)c(O)ccc3nc2-1 [topotecan, Topotecan, reference compound]	–	No correlation	most effective against the colon carcinoma derived cell line SW620	–	six-hour exposure being much more effective than a four-hour exposure	inhibition of toxicity by co-treatment with HU [6]: suppresses the toxicity
